# Results: patent US5070210A, “Novel ketenimines as intermediates for insecticides” (ICI Americas Inc., priority 1990, dated 1991)
# Legend:
# Assay type in all cases: in vivo
# [1] = tested on: Cabbage Looper [Trichoplusia ni (Hubner)]; test: Cabbage looper insecticidal test; conditions: second-instar larvae, percent in solution; 3-5 days
# Summary of the method: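 Leaf dip, squash cotyledons, 50-50 acetone-water, top dose 0.1% and lower. 5 second-instar larvae/dish, moist filter paper, high-humidity chamber. Mortality at 3-5 d; LC50 (% in solution) from dosage-mortality curves.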
# [2] = tested on: Aster Leafhopper [Macrosteles fascifrens (Stal)]; test: Aster leafhopper insecticidal test; conditions: adults/nymphs, percent in solution; 48 hours
# Protocol: The compounds in Tables 1 and 2 above were tested for insecticidal activity using the following testing procedures. LC50 values, based on the results of these tests and calculated according to dosage-mortality curves, are expressed in Table 3.
# Aster Leafhopper [Macrosteles fascifrens (Stal)]
# Oat seedlings (Avena sp) were grown in a commercial potting soil in cups. When the plants were approximately 10 cm tall they were thinned to three plants per cup and dipped for 2-3 seconds in 50-50 acetone-water solutions of the test compounds. When the plants had dried, a clear plastic tube was placed over them and the bottom end pressed into the cup. Ten aster leafhopper adults/nymphs were then placed in each tube and the tops of the tubes covered with white organdy cloth. Mortality counts were made after 48 hours. Test concentrations ranged from 0.05% down to that at which 50% mortality occurred. The LC50 values are expressed below in Table 3 under the heading "LH" in terms of the percent of the test compound in the solution.
# [3] = tested on: Tobacco Budworm [Heliothis virescens (Fabricius)] eggs; test: Tobacco budworm egg test; conditions: 2-day old eggs, percent in solution
# Summary of the method: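 LC50 values (percent test compound in the dip solution) were calculated from dosage-mortality curves. Egg patches, 2 days old, were dipped in acetone solutions at concentrations from 0.1% downward and held at 78° F on rearing medium until control larvae hatched and fed.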
# [4] = tested on: Housefly [Musca domestica]; test: Housefly insecticidal test; conditions: μg per 25 female flies; mortality after 48 hours
# Summary of the method: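 LC50 (μg compound per 25 female flies) derives from dosage-mortality curves of 48 h kill. Flies, females 1-2 days old, were held 25 per cage over a dish coated with dried acetone deposit, starting at 100 μg per cage and descending.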
# [5] = tested on: Maize weevil [Sitophilus Zeamais (Motschulsky)]; test: Maize weevil insecticidal test; conditions: adult weevils, percent in solution; 48 hours
# Summary of the method: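 LC50, in percent of compound in solution, was derived from dosage-mortality curves after 48 h at about 25 °C. Ten adult weevils per container fed on four corn seeds briefly immersed in acetone:water (50:50) solutions of up to 0.01% and dried.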
smiles,measurement,setting,value
CCc1cccc(N=C(OCc2cccc(Oc3ccccc3)c2)C(C)C)c1 [Compound 154],"LC50, CL",[1],0.004%
same,"LC50, LH",[2],> 0.05%
same,"LC50, TBW, E (TBW-E)",[3],0.1%
same,"LC50, HF",[4],25 µg
CC(C)C(=Nc1ccc2c(c1)OC(C)(C)O2)OCc1ccc(F)c(Oc2ccccc2)c1 [Compound 242],"LC50, CL",[1],0.00025%
same,"LC50, LH",[2],> 0.05%
same,"LC50, TBW, E (TBW-E)",[3],> 0.1%
same,"LC50, HF",[4],< 100 µg
CC(C)C(=Nc1ccc2c(c1)CCC2)OCc1cccc(Oc2ccccc2)c1 [Compound 187],"LC50, CL",[1],0.0025%
same,"LC50, LH",[2],0.0025%
same,"LC50, TBW, E (TBW-E)",[3],> 0.1%
same,"LC50, HF",[4],15 µg
Cc1ccc(Oc2cccc(COC(=Nc3ccc(F)c(Cl)c3)C(C)C)c2)cc1 [Compound 225],"LC50, CL",[1],0.0025%
same,"LC50, LH",[2],> 0.05%
same,"LC50, TBW, E (TBW-E)",[3],> 0.1%
same,"LC50, HF",[4],> 100 µg
CC(C)C(=Nc1ccc(OC(F)(F)F)cc1)OCc1cccc(Oc2ccccc2)c1 [Compound 70],"LC50, CL",[1],< 0.1%
same,"LC50, LH",[2],> 0.05%
same,"LC50, TBW, E (TBW-E)",[3],0.01%
same,"LC50, HF",[4],< 100 µg
CC(C)C(=Nc1cc(Cl)c(Cl)c(Cl)c1)OCc1cccc(Oc2ccccc2)c1 [Compound 20],"LC50, CL",[1],0.0025%
same,"LC50, LH",[2],0.003%
same,"LC50, TBW, E (TBW-E)",[3],< 0.1%
same,"LC50, HF",[4],64 µg
Fc1ccc(N=C(OCc2cccc(Oc3ccccc3)c2)C(Cl)=C(Cl)Cl)cc1 [Compound 49],"LC50, CL",[1],0.007%
same,"LC50, LH",[2],> 0.05%
same,"LC50, TBW, E (TBW-E)",[3],> 0.05%
same,"LC50, HF",[4],> 100 µg
CC(C)C(=Nc1cc(Cl)cc(Cl)c1)OCc1cccc(Oc2ccccc2)c1 [Compound 16],"LC50, CL",[1],0.004%
same,"LC50, LH",[2],0.0005%
same,"LC50, TBW, E (TBW-E)",[3],0.04%
same,"LC50, HF",[4],20 µg
CC(C)C(=Nc1cc(F)ccc1Cl)OCc1ccc(F)c(Oc2ccc(F)cc2)c1 [Compound 303],"LC50, CL",[1],0.0015%
same,"LC50, LH",[2],0.0005%
same,"LC50, TBW, E (TBW-E)",[3],> 0.1%
same,"LC50, HF",[4],> 100 µg
CCc1ccc(N=C(OCc2cccc(Oc3ccccc3)c2)C(C)C)cc1 [Compound 161],"LC50, CL",[1],0.0014%
same,"LC50, LH",[2],0.002%
same,"LC50, TBW, E (TBW-E)",[3],0.07%
same,"LC50, HF",[4],15 µg
Cc1c(Cl)cc(N=C(OCc2cccc(Oc3ccccc3)c2)C(C)C)cc1Cl [Compound 101],"LC50, CL",[1],0.0045%
same,"LC50, LH",[2],0.0008%
same,"LC50, TBW, E (TBW-E)",[3],> 0.1%
same,"LC50, HF",[4],81 µg
CC(C)C(=Nc1ccc(C(C)C)cc1)OCc1cccc(Oc2ccc(F)cc2)c1 [Compound 228],"LC50, CL",[1],0.0025%
same,"LC50, LH",[2],> 0.05%
same,"LC50, TBW, E (TBW-E)",[3],> 0.1%
same,"LC50, HF",[4],> 100 µg
CC(C)C(=Nc1c(F)cc(F)cc1Br)OCc1cccc(Oc2ccccc2)c1 [Compound 129],"LC50, CL",[1],0.005%
same,"LC50, LH",[2],0.01%
same,"LC50, TBW, E (TBW-E)",[3],> 0.1%
same,"LC50, HF",[4],> 100 µg
CCCC(=Nc1ccc2c(c1)OCO2)OCc1cccc(Oc2ccccc2)c1 [Compound 188],"LC50, CL",[1],0.002%
same,"LC50, LH",[2],> 0.05%
same,"LC50, TBW, E (TBW-E)",[3],> 0.1%
same,"LC50, HF",[4],12 µg
CC(C)C(=Nc1ccc(Cl)cc1)OC(C)c1cccc(Oc2ccccc2)c1 (centres unmarked) [Compound 457],"LC50, CL",[1],0.009%
same,"LC50, LH",[2],> 0.05%
same,"LC50, TBW, E (TBW-E)",[3],> 0.05%
same,"LC50, HF",[4],> 100 µg
CC(C)C(=Nc1c(Cl)cc([N+](=O)[O-])cc1Cl)OCc1cccc(Oc2ccccc2)c1 [Compound 92],"LC50, CL",[1],0.015%
same,"LC50, LH",[2],> 0.05%
same,"LC50, TBW, E (TBW-E)",[3],> 0.1%
same,"LC50, HF",[4],> 100 µg
CC(C)C(=Nc1ccc(Br)cc1)OCc1cccc(Oc2ccccc2)c1 [Compound 131],"LC50, CL",[1],0.0045%
same,"LC50, LH",[2],0.005%
same,"LC50, TBW, E (TBW-E)",[3],> 0.1%
same,"LC50, HF",[4],17 µg
CC(C)C(=Nc1ccc(F)c(Cl)c1)OCc1ccnc(Oc2ccc(F)cc2)c1 [Compound 511],"LC50, CL",[1],0.0012%
same,"LC50, MW",[5],> 0.01%
same,"LC50, TBW, E (TBW-E)",[3],> 0.1%
same,"LC50, HF",[4],89 µg
CC(C)C(=Nc1ccc(C(F)(F)F)cc1Cl)OCc1ccc(F)c(Oc2ccccc2)c1 [Compound 428],"LC50, CL",[1],0.0017%
same,"LC50, MW",[5],> 0.01%
same,"LC50, TBW, E (TBW-E)",[3],> 0.1%
same,"LC50, HF",[4],> 100 µg
CC(C)C(=Nc1cccc(Br)c1)OCc1cccc(Oc2ccc(Cl)cc2)n1 [Compound 557],"LC50, CL",[1],0.0004%
same,"LC50, MW",[5],> 0.01%
same,"LC50, TBW, E (TBW-E)",[3],> 0.1%
same,"LC50, HF",[4],< 100 µg
CC(C)C(=Nc1ccc(C(F)(F)F)cc1Cl)OCc1cccc(Oc2ccc(F)cc2)c1 [Compound 427],"LC50, CL",[1],< 0.1%
same,"LC50, MW",[5],> 0.01%
same,"LC50, TBW, E (TBW-E)",[3],> 0.1%
same,"LC50, HF",[4],> 100 µg
CC(C)C(=Nc1cccc(C(F)(F)F)c1)OCc1cc(Oc2ccccc2)ccn1 [Compound 506],"LC50, CL",[1],0.005%
same,"LC50, MW",[5],> 0.01%
same,"LC50, TBW, E (TBW-E)",[3],> 0.1%
same,"LC50, HF",[4],40 µg
CC(C)C(=Nc1ccc(Cl)cc1)OCc1cccc(Oc2ccc(Cl)cc2)n1 [Compound 554],"LC50, CL",[1],0.00075%
same,"LC50, MW",[5],> 0.01%
same,"LC50, TBW, E (TBW-E)",[3],0.04%
same,"LC50, HF",[4],> 100 µg
COc1ccc(N=C(OCc2ccc(F)c(Oc3ccc(Cl)cc3)c2)C(C)C)cc1 [Compound 412],"LC50, CL",[1],> 0.1%
same,"LC50, MW",[5],> 0.01%
same,"LC50, TBW, E (TBW-E)",[3],> 0.1%
same,"LC50, HF",[4],< 100 µg
COc1ccc(N=C(OCc2ccc(F)c(Oc3ccc(F)cc3)c2)C(C)C)cc1Cl [Compound 408],"LC50, CL",[1],0.0015%
same,"LC50, MW",[5],> 0.01%
same,"LC50, TBW, E (TBW-E)",[3],0.02%
same,"LC50, HF",[4],< 100 µg
Cc1cc(N=C(OCc2ccc(F)c(Oc3ccc(Cl)cc3)c2)C(C)C)ccc1F [Compound 399],"LC50, CL",[1],0.0012%
same,"LC50, MW",[5],> 0.01%
same,"LC50, TBW, E (TBW-E)",[3],0.025%
same,"LC50, HF",[4],< 100 µg
